“Also recorded” adds a separate entry of the source.
How the values were obtained:
Sigma1 = Sigma1 (Homo sapiens, UniProt Q99720); test: Sigma1 binding, Ki
Androgen Receptor [1] = molecular target: T1, Androgen Receptor (Homo sapiens, UniProt P10275); test: cell-based
T1 sequence (P10275 1-920): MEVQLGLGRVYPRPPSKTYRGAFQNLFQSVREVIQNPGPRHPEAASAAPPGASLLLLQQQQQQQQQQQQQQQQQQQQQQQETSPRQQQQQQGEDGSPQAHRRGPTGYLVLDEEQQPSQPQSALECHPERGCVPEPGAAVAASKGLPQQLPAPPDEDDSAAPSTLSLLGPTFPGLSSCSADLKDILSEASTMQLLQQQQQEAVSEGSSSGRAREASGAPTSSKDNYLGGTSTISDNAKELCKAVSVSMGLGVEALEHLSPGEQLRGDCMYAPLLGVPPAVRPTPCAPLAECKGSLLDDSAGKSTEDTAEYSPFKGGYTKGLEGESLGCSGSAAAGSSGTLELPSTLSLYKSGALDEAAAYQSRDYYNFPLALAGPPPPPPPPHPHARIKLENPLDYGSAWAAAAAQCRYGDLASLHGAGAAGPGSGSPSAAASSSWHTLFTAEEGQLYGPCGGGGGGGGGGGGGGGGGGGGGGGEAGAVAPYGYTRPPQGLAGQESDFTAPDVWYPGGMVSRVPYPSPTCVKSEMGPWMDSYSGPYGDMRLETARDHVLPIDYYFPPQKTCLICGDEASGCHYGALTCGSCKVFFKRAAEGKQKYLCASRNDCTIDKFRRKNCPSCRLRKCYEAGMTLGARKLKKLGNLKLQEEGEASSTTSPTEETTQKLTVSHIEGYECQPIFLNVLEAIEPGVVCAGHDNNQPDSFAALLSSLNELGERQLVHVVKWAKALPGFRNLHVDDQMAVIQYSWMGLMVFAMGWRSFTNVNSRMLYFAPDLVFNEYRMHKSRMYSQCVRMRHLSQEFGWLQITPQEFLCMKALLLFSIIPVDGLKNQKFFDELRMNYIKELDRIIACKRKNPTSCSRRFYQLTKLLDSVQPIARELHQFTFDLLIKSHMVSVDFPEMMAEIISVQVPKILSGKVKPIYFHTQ

SARS-CoV-2 [2] = test: Infection of Huh7.5 cells by replication competent SARS-CoV-2, qRT-PCR; type: cell-based; conditions: 10 μM, 24 hours post inoculation
Protocol: FIG. 3 illustrates the finding that only certain Sigma1 inhibitors block SARS-CoV-2 infection. […] Results can be compared to vehicle (DMSO), Remdesivir (Rem, 10 μM), and hydroxychloroquine (HCQ, 10 μM). Compounds and SARS-CoV-2 were added to cell culture; 24 hours post inoculation relative infection calculated by qRT-PCR.
A discrete set of Sigma1 modulators was tested in an assay of replication competent SARS-CoV-2 infectivity. […] Strikingly, IPAG, CT189, and CT1107 blocked SARS-CoV-2 infection by 1,000 (IPAG, CT189, CT360) to 10,000 (CT1107) fold.

[3] = tested on: Vero E6 cells expressing SARS-CoV-2 spike and human TMPRSS2; type: cell-based; conditions: Vero E6, 10 μM vs DMSO
human TMPRSS2 = type: cell-based; conditions: Vero E6 lysates, 10 μM, FIG. 7
SARS-CoV-2 [4] = test: SARS-CoV-2 infection of VeroE6/TMPRSS2 cells, qRT-PCR; type: cell-based; conditions: VeroE6/TMPRSS2 cells, 5, 7.5, 10 μM, 48 hours, FIG. 8
Protocol: (§1) FIG. 8 illustrates results obtained when VeroE6/TMPRSS2 or Caco2 cells were treated with DMSO or 5 μM, 7.5 μM, and 10 μM CT1107 and infected with SARS-CoV-2 for 48 hours. RNA was isolated and qRT-PCR was performed with virus-specific and 18S primers. Viral RNA was normalized to 18S RNA.
(§2) It was tested whether Sigma1-targeting compounds are antiviral in additional cell lines. VeroE6 cells stably expressing TMPRSS2and Caco-2 (human colorectal epithelial cells) were tested. […] In certain embodiments, these compounds are antiviral in primary respiratory epithelial cells.

SARS-CoV-2 [5] = test: SARS-CoV-2 infection of Caco2 cells, qRT-PCR; type: cell-based; conditions: Caco2 cells, 5, 7.5, 10 μM, 48 hours, FIG. 8
Protocol: as §1, §2

[6] = tested on: VeroE6 cells stably expressing TMPRSS2; test: Toxicity in VeroE6/TMPRSS2 cells; type: cell-based; conditions: VeroE6/TMPRSS2 cells, 5, 7.5, 10 μM
Protocol: as §2

[7] = tested on: Caco-2 (human colorectal epithelial cells); test: Toxicity in Caco-2 cells; type: cell-based; conditions: Caco-2 cells, 5, 7.5, 10 μM
Protocol: as §2

Dengue Virus = test: Dengue virus infection of U2OS cells, qPCR; type: cell-based; conditions: MOI 1, ~16-18 hours, CT110 10 μM, CT1107 2.5-10 μM, FIG. 10
Protocol: (§3) U2OS cells were treated with DMSO or 10 μM of CT110 (also known as CT189, left graph) or DMSO or 2.5 μM, 5 μM, 7.5 μM, and 10 μM CT1107 (right graph). 2 hours after starting treatment, U2OS cells were infected with a multiplicity of infection (MOI) of 1 for Dengue Virus and incubated at 37° C. for ˜16-18 hours. Cells were harvested with Trizol and RNA was extracted for qPCR. Y-axis indicates fold change in infection.

Zika Virus = test: Zika virus infection of U2OS cells, qPCR; type: cell-based; conditions: MOI 1, ~16-18 hours, CT110 10 μM, CT1107 2.5-10 μM, FIG. 11
Protocol: as §3, with “Zika” for “Dengue”

Powassan Virus = type: cell-based; conditions: U2OS, MOI 1, ~16-18 hours; CT110 10 μM, CT1107 2.5-10 μM, FIG. 12
Androgen Receptor [8] = molecular target: T1, Androgen Receptor
TMPRSS2 mRNA transcript = test: TMPRSS2 transcript levels in LNCaP cells; conditions: 10 μM, FIG. 1B

Sigma1, sequence (Q99720 whole entry): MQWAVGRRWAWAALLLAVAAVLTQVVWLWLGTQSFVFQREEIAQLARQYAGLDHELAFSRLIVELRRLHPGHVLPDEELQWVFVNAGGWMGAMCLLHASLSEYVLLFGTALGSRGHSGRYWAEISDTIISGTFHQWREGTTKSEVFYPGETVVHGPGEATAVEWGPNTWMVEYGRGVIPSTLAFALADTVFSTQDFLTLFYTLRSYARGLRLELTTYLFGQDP

Structure (SMILES) | Ki (Sigma1) | IC50 (Androgen Receptor [1]) | effect on SARS-CoV-2 infection (in words) (SARS-CoV-2 [2]; FIG. 3) | also measured
CC(C)(CCNC(=N)Nc1cnc(C(F)(F)F)nc1)Oc1ccc(C(F)(F)F)cc1 [Compound I, 1-(3-methyl-3-(4-(trifluoromethyl)phenoxy)butyl)-3-(2-(trifluoromethyl)pyrimidin-5-yl)guanidine] | 35 nM | 10500 nM | – | –
O=C(CCCN1CCC(O)(c2ccc(Cl)cc2)CC1)c1ccc(F)cc1 [haloperidol, 4-[4-(4-chlorophenyl)-4-hydroxypiperidin-1-yl]-1-(4-fluorophenyl)butan-1-one, reference compound] | – | – | suppressed SARS-CoV-2 infection | effect on SARS-CoV-2 infection (in words) (SARS-CoV-2 [2]; FIG. 3, listed as Haloperidol): clear but modest antiviral effect
CC(C)(CCNC(=N)Nc1ccc(Cl)c(Cl)c1)Oc1ccc(C(F)(F)F)cc1 [Compound D, 1-(3,4-dichlorophenyl)-3-(3-methyl-3-(4-(trifluoromethyl)phenoxy)butyl)guanidine] | 8 nM | 3000 nM | – | –
COc1cc(NC(=N)NCCC(C)(C)Oc2ccc(C(F)(F)F)cc2)cnc1C#N [Compound J, 1-(6-cyano-5-methoxypyridin-3-yl)-3-(3-methyl-3-(4-(trifluoromethyl)phenoxy)butyl)guanidine] | 7 nM | 8500 nM | – | –
O=C(OCCN1CCOCC1)C1(c2ccccc2)CCCCC1 [PRE084, 2-morpholin-4-ylethyl 1-phenylcyclohexane-1-carboxylate, reference compound] | – | – | did not block infection | –
COc1cc(NC(=N)NCCC(C)(C)c2ccc(C(F)(F)F)cc2)ncc1C#N [Compound F, 1-(5-cyano-4-methoxypyridin-2-yl)-3-(3-methyl-3-(4-(trifluoromethyl)phenyl)butyl)guanidine] | 11 nM | 3000 nM | – | blocked SARS-CoV-2 infection, fold (SARS-CoV-2 [2]; FIG. 3): 10,000 fold; effect on SARS-CoV-2 infection (in words) (SARS-CoV-2 [2]; FIG. 3, listed as CT1107): suppressed SARS-CoV-2 infection; also recorded: inhibit SARS-CoV-2 infection; also recorded: most potent inhibitor of CoV-2 infection; number of syncytia ([3]; FIG. 5): significant decrease; size of syncytia (number of nuclei per syncytia) ([3]; FIG. 6): significant decrease; TMPRSS2 protein level (human TMPRSS2): clear decrease; antiviral effect on SARS-CoV-2 (SARS-CoV-2 [4]): potently antiviral; antiviral effect on SARS-CoV-2 (SARS-CoV-2 [5]): potently antiviral; toxicity [6]: without toxicity; toxicity [7]: without toxicity; Dengue virus infection (fold change in infection) (Dengue Virus): inhibit dengue virus infection; Zika virus infection (fold change in infection) (Zika Virus): inhibit Zika virus infection; Powassan virus infection (fold change in infection) (Powassan Virus): inhibit Powassan virus infection
COC(=O)c1ccc(NC(=N)NCCC(C)(C)c2ccc(C(F)(F)F)cc2)nc1 [Compound G, methyl 6-(3-(3-methyl-3-(4-(trifluoromethyl)phenyl)butyl)guanidino)nicotinate] | 3 nM | 2800 nM | – | –
COc1cc(NC(=N)NCC(C)(C)COc2ccc(C(F)(F)F)cc2)cnc1C#N [Compound B, 1-(6-cyano-5-methoxypyridin-3-yl)-3-(2,2-dimethyl-3-(4-(trifluoromethyl)phenoxy)propyl)guanidine] | 6 nM | 10000 nM | – | –
COc1cc(NC(=N)NCCC(C)(C)Oc2ccc(C(F)(F)F)cc2)cnc1C#N [Compound A, 1-(6-cyano-5-methoxypyridin-3-yl)-3-(3-methyl-3-(4-(trifluoromethyl)phenoxy)butyl)guanidine] | 9 nM | 8100 nM | – | –
CC(C)(CCNC(=N)Nc1cnc(Cl)c(F)c1)Oc1ccc(C(F)(F)F)cc1 [Compound E, 1-(6-chloro-5-fluoropyridin-3-yl)-3-(3-methyl-3-(4-(trifluoromethyl)phenoxy)butyl)guanidine] | 5 nM | 5000 nM | – | –
COc1ccc(CCN2CCN(CCCc3ccccc3)CC2)cc1OC [SA4503, 1-(3,4-dimethoxyphenethyl)-4-(3-phenylpropyl) piperazine, reference compound] | – | – | did not block infection | –
Cc1cc(OCCN2CCOCC2)nn1-c1ccc2ccccc2c1 [Compound S1RA, 4-[2-[[5-methyl-1-(2-naphthalenyl)-1H-pyrazol-3-yl]oxy]ethyl]morpholine, reference compound] | – | – | did not block infection; also recorded: does not block infection | –
N=C(Nc1ccc(I)cc1)NC1C2CC3CC(C2)CC1C3 (centres unmarked) [IPAG, reference compound] | – | – | suppressed SARS-CoV-2 infection; also recorded: inhibit SARS-CoV-2 infection | blocked SARS-CoV-2 infection, fold (SARS-CoV-2 [2]; FIG. 3): 1,000 fold; dihydrotesterone (DHT) induced AR transcriptional activity (Androgen Receptor [8]): inhibition; TMPRSS2 transcript (TMPRSS2 mRNA transcript): decreased
COC(=O)c1ccc(NC(=N)NCC(C)(C)COc2ccc(C(F)(F)F)cc2)nc1 [Compound H, methyl 6-(3-(2,2-dimethyl-3-(4-(trifluoromethyl)phenoxy)propyl)guanidino)nicotinate] | 18 nM | 2900 nM | inhibit SARS-CoV-2 infection | blocked SARS-CoV-2 infection, fold (SARS-CoV-2 [2]; FIG. 3): 1,000 fold
N=C(NCCCOc1ccc(F)cc1)Nc1ccc(Cl)cc1 [CT189] | – | – | suppressed SARS-CoV-2 infection; also recorded: inhibit SARS-CoV-2 infection | blocked SARS-CoV-2 infection, fold (SARS-CoV-2 [2]; FIG. 3): 1,000 fold; Dengue virus infection (fold change in infection) (Dengue Virus): inhibit dengue virus infection; Zika virus infection (fold change in infection) (Zika Virus): inhibit Zika virus infection; Powassan virus infection (fold change in infection) (Powassan Virus): inhibit Powassan virus infection; dihydrotesterone (DHT) induced AR transcriptional activity (Androgen Receptor [8]): inhibition

From US12582619B2 (priority 2020, dated 2026)
